Key:
MCF7 cells [1] = assay: Mitochondrial mass quantification by flow cytometry (MitoTracker Deep Red); format: cell-based, Human; conditions: 50 μM, 5 days, relative to vehicle
Source text: In order to assess whether the inhibition of DRP1 was actually being translated into a reduction in mitochondrial fission, the inventors stained the mitochondria of MCF7 cells with Mitotracker Deep Red, which is a marker of mitochondrial mass. […] The original images are black background with shades of red over the cells, whereas the images in FIG. 3 have been color-inverted and generated in grey scale. Mitochondrial mass was also quantified by flow cytometry. FIGS. 4A-4C show results of mitochondrial mass quantification. In FIG. 4A, Mitotracker Deep Red mean intensity relative to vehicle intensity is shown for 2-day and 5-day treatments.
MITOCHONDRIAL MASS QUANTIFICATION: To measure mitochondrial mass, cells were stained with MitoTracker Deep Red (M22426, Invitrogen). Briefly, 2×10^5 […] cells per well were seeded in 6-well plates. […] Cells were then incubated for 15 min at 37° C. with the 10 nM Mitotracker Deep Red probe diluted in PBS (D8662, Sigma). All subsequent steps were performed in the dark. Cells were washed in PBS, harvested, and resuspended in PBS. Mitotracker signal was quantified as mean fluorescent intensity of the viable cell population in a Fortessa flow cytometer (BD Bioscience). Results were analyzed using FlowJo software.

MCF7 cells [2] = assay: Extracellular flux analysis (ECAR and OCR, XF96); format: cell-based, Human
Experimental: Inhibition of mitochondrial fission by m-DIVI-1 or a derivative thereof also blocks the normal functioning of mitochondrial metabolism in CSCs. Indeed, it has been shown that a DRP1 mutant that inhibits mitochondrial fission increases glucose uptake and lactate production, and decreases ATP production. […] The extracellular acidification rate (ECAR) and the oxygen consumption rate (OCR) were measured using an XF96 Extracellular Flux Analyser, and FIGS. 5A, 5B, and 6A-6C show the data. Basal glycolysis, glycolytic capacity and glycolytic reserve were calculated after addition of glucose, oligomycin and 2-deoxyglucose (2DG) into the media. […] Thus, to measure basal respiration, ATP production, maximal respiration and spare respiratory capacity, oxygen consumption was also calculated after addition of oligomycin, FCCP and antimycin/rotenone into glucose-containing media. […] The OCR versus ECAR graph was also plotted to have an indication of the metabolic state of the cell. […] Thus, mDIVI-1-induced inhibition of mitochondrial fission functionally targets oxidative phosphorylation and also the glycolytic function of MCF7 cells, transforming them into cells with lower mitochondrial energetic needs.
EXTRACELLULAR FLUX […] AND BRADFORD ASSAY: Extracellular acidification rate (ECAR) and oxygen consumption rate (OCR) were measured in a XF96 Extracellular Flux Analyzer (Seahorse Biosciences). Briefly, 1×10^4 MCF7 cells per well were seeded in XF96 plates and incubated with complete medium. When cells were attached, mDIVI-1 and vehicle treatments were added. Six replicates were run for each condition. After 48 hours, un-buffered DMEM XF medium supplemented with 2 mM glutamine (pH 7.4) was added to the cells, and placed in a 37° C. CO2-free incubator for 1 hour. Ten mM glucose, 1 μM oligomycin and 100 mM 2-deoxyglucose (2-DG) were injected into the media at different time points and ECAR was measured. Likewise, ECAR and OCR were quantified using un-buffered DMEM XF medium supplemented with 2 mM glutamine, 2 mM sodium pyruvate and 10 mM glucose. One μM oligomycin, 0.9 μM FCCP and 1 μM rotenone and antimycin A were injected into the media at different time points and OCR and ECAR were measured. Cells were finally lysed with 0.1 M NaOH and protein lysate was subsequently stained with Quick Start™ Bradford 1× Dye Reagent (500-0205, BioRad) to normalise results. All parameters were calculated according to manufacturer.

A375 melanoma cells = assay: Tumorsphere formation assay, A375; format: cell-based
Experimental: One of the gold standard techniques for the study and identification of CSCs is the sphere formation assay, an in vitro culture system that enriches for CSCs. Under these anchorage-independent culture conditions, CSCs preferentially form the so-called tumorspheres, whereas more differentiated cells die rapidly.
TUMORSPHERE FORMATION ASSAY: A single cell suspension was prepared using enzymatic (1× Trypsin-EDTA, T3924, Sigma Aldrich), and manual disaggregation (25 gauge needle). […] After 5 days of culture in a humidified incubator at 37° C., tumorspheres bigger than 50 μm were counted using an eye piece graticule.

MCF7 cells [3] = assay: CD24/CD44 expression by FACS; format: cell-based, Human
Experimental: In human breast cancers, CSCs were first identified by the profile of expression of the cell surface marker CD24^−/CD44^+.
This is evident in FIGS. 10A and 10B.
The surviving fraction after 2 days and 5 days of growth was analyzed by FACS. MCF7 cells were either trypsinised or spun down and trypsinised and incubated with CD24 (IOTest CD24-PE, Beckman Coulter) and CD44 (APC mouse anti-human CD44, 559942, BD Pharmingen) for 15 minutes on ice. Cells were then rinsed twice in PBS, spun down, and resuspended with DAPI dye (D1306, Molecular probes) at 3 μM in PBS for 10 minutes. Samples were then analyzed by FACS (Fortessa, BD Bioscence). Only the live cell population, identified using the DAPI staining, was analyzed for CD24/CD44 expression. Data were analyzed using FlowJo software.

## COc1cc(-n2c(S)nc3ccccc3c2=O)c(Cl)cc1Cl [mDIVI-1, 3-(2,4-Dichloro-5-methoxyphenyl)-2-sulfanyl-4(3H)-quinazolinone]
MCF7 cells [1]
  Mitotracker Deep Red mean fluorescence intensity (mitochondrial mass): significantly higher
MCF7 cells [2]; 48 hours
  basal glycolysis (ECAR): did not have a significant effect
  glycolytic capacity (ECAR): reduced
  glycolytic reserve (ECAR): reduced
  oxygen consumption linked to ATP production: significantly reduced
  oxygen consumption linked to basal respiration: significantly reduced
MCF7 cells [2]; 48 hours, all mDIVI-1 concentrations
  spare respiratory capacity: slightly increased
MCF7 cells [2]; 48 hours, to a lesser extent, at higher concentrations
  oxygen consumption linked to maximal respiration: significantly reduced
MCF7 cells [2]; compared to vehicle
  OCR/ECAR ratio: decreased dose-dependently
A375 melanoma cells; A375, 10 μM
  decrease of tumorsphere forming capacity: over 35%
A375 melanoma cells; A375, 50 μM
  decrease of tumorsphere forming capacity: over 90%
MCF7 cells [3]; MCF7 grown as monolayers, 10 or 50 μM, vs vehicle
  abundance of CD24−/CD44+ subpopulation: not reduced
MCF7 cells [3]; MCF7 in suspension, dose-dependent
  amount of CD24−/CD44+ cells: increased
